Experimental data published in PubChem BioAssay AID1053120 (Broad Institute, 2014).
Calls of active or inactive are those of the source. No rule for the calls is given here.

system: D54 LucT luciferase reporter (no NLG), luminescence, 24 h; experiment: glycosylation-insensitive luciferase reporter activation – D54 LucT cells, dry powder, set 2, counter-screen for N-linked glycosylation inhibitor project, dose response (AID 1053120); settings: not given

Compound	AC40 [nM]
O=C(N/N=C/c1ccc(Cl)cc1)c1sccc1OCc1ccc(F)cc1	1600
CCOC(=O)c1ccc(Oc2cc(C)nc(SC)n2)cc1	3390
Nc1nc(=S)c2ncn([C@@H]3O[C@H](CO)[C@@H](O)[C@H]3O)c2[nH]1	5190
Cc1ccc(/C=N/NC(=O)C2COc3ccccc3O2)s1 (configuration not stated)	15300
COc1cc(-c2nnc(SCC3(c4ccc(Br)cc4)OCCO3)o2)cc(OC)c1OC	930
COC(=O)c1cn(C(=O)c2ccc(OC)cc2)c2ccccc12	15400
COc1ccccc1CSc1nnc(-c2ccccc2)o1	845
COc1ccc(-c2nnc(SCc3ccccc3)o2)cc1	5120
COc1ccccc1-c1nnc(SCc2ccccc2)o1	632
CCCNS(=O)(=O)c1cccc(C(=O)OCc2cc(=O)oc3cc(OC)ccc23)c1	2140

system: not listed separately; experiment: as above; settings: D54 LucT luciferase reporter (no NLG), luminescence, 24 h; at 19.5 µM (top of the series)

Compound	luciferase activation
COc1ccc2nc(NC(=O)c3cc(S(=O)(=O)N(C)C)ccc3N3CCCC3)sc2c1	0% (inactive)
CCOC(=O)COc1cccc2c(=O)n(CC(=O)NCc3ccccc3)ccc12	0% (inactive)
Brc1ccc(CSc2nnc(-c3ccccc3)o2)cc1	0% (inactive)
CN(C)S(=O)(=O)c1ccc(N2CCCC2)c(C(=O)Nc2ccccc2)c1	20% (inactive)
O=C(Cc1ccccc1)c1nnc(-c2ccccc2)o1	33.3% (inactive)
COc1cccc2sc(NC(=O)c3cc(S(=O)(=O)N(C)C)ccc3N3CCCC3)nc12	-50% (inactive)
CC(=O)N1CCC(=O)c2cc3ccccc3cc21	33.3% (inactive)
CCN(CC)CCOc1ccc2c(c1)C(=NNC(=O)c1ccccn1)c1cc(OCCN(CC)CC)ccc1-2	-33.3% (inactive)
COc1cc(C(=O)NCCOc2cc(C)cc(C)c2)cc(OC)c1OC	33.3% (inactive)
COc1ccc2sc(NC(=O)c3cc(S(=O)(=O)N(C)C)ccc3N3CCCC3)nc2c1	-50% (inactive)
CC(=O)c1cccc(NC(=O)CSc2ncc(C(=O)Nc3ccccc3)c(=O)n2C)c1	33.3% (inactive)
Cc1ccc(C(=O)c2cc([N+](=O)[O-])ccc2N2CCOCC2)cc1C	66.7% (inactive)
CCn1c2ccccc2c2cc(NC(=O)c3cc(OC)c(OC)c(OC)c3)ccc21	-33.3% (inactive)
CCN(CC)CCCNc1nc2cc(OC)c(OC)cc2c2nc(-c3ccccc3)nn12	-33.3% (inactive)
Cc1ccc2cc(CN(CCCN(C)C)C(=O)NCc3ccccc3)c(=O)[nH]c2c1C	50% (inactive)
Cc1csc(NC(=O)c2cc(S(=O)(=O)N(C)C)ccc2N2CCCC2)n1	50% (inactive)
C/C(=N\NC(=O)c1c([N+](=O)[O-])c(C)nn1C)c1ccc(NC(=O)C2CCCC2)cc1	0% (inactive)
Cc1ccc2cc(CN(CCCN(C)C)C(=O)Nc3ccccc3)c(=O)[nH]c2c1C	0% (inactive)
Cc1ccc(NC(=O)c2cc(S(=O)(=O)N(C)C)ccc2N2CCCC2)cc1	0% (inactive)
CCC1=Nc2cc(C(=O)NCCCOC)ccc2Sc2ccccc21	-33.3% (inactive)
Cc1cnc(NC(=O)c2cc(S(=O)(=O)N3CCCCC3)ccc2N2CCCC2)s1	50% (inactive)
COc1ccc2c(COC(=O)c3cccc(S(=O)(=O)NCC(C)C)c3)cc(=O)oc2c1	66.7% (inactive)
Cc1cnc(NC(=O)c2cc(S(=O)(=O)N3CCCC3)ccc2N2CCCC2)s1	-20% (inactive)
COc1ccccc1OCC(=O)NNC(=O)c1ccoc1C	33.3% (inactive)
O=C1CCN(Cc2ccccc2)c2cc3ccccc3cc21	0% (inactive)
Cc1ccc(CCC(=O)Nc2ncc(Cc3cc(Cl)ccc3Cl)s2)o1	-33.3% (inactive)

Compound	luciferase activation
Cc1cnc(NC(=O)c2cc(S(=O)(=O)N3CCOCC3)ccc2N2CCCC2)s1	-20% (inactive)
Cc1cccc(C)c1OCCNC(=O)C(=O)NCc1ccco1	33.3% (inactive)
CN(C)S(=O)(=O)c1ccc(N2CCCC2)c(C(=O)Nc2nc3ccccc3s2)c1	0% (inactive)
CC(=O)c1ccc(Oc2cc(C)nc(-n3nc(C)cc3C)n2)cc1	0% (inactive)
Cc1ccc(Oc2ccc(S(=O)(=O)N3CCOCC3)cc2C(N)=O)c(-n2nc3ccccc3n2)c1	33.3% (inactive)
CN(C)S(=O)(=O)c1ccc(N2CCCC2)c(C(=O)Nc2nccs2)c1	20% (inactive)
CCCCOc1ccccc1C1CC(=O)NC2=C1C(=O)CCC2 (configuration not stated)	0% (inactive)
CCOc1ccc(S(=O)(=O)NCc2ccccn2)cc1NC(=O)c1ccccc1F	0% (inactive)
CCN(CC)CCC(=O)Nc1cccc2c1C(=O)c1ccccc1C2=O	-33.3% (inactive)
COc1ccc(CSc2nnc(-c3ccccc3)o2)cc1	50% (inactive)
Cc1cc(C)nc(/N=C(\N)Nc2ccc(OCc3ccccc3)cc2)n1	-33.3% (inactive)
COc1ccc(NC(=O)C(=O)c2cn(CC(=O)N3CCCC3)c3ccccc23)cc1	-33.3% (inactive)
Cc1[nH][nH]c(=O)c1C(c1ccc(-c2ccc(Cl)c(Cl)c2)o1)c1c(C)[nH][nH]c1=O	0% (inactive)
Cc1cnc(NC(=O)c2cc(S(=O)(=O)N(C)C)ccc2N2CCC2)s1	-20% (inactive)
COc1cccc(N2CCN(C(=O)c3ccc(CS(=O)c4ccc(C)cc4)o3)CC2)c1 (configuration not stated)	0% (inactive)
Cc1cnc(NC(=O)c2cc(S(=O)(=O)N(C)C)ccc2N2CCCC2)s1	0% (inactive)
CCCOC(=O)c1[nH]c2c(c1C)C(=O)CC(c1cccs1)C2 (configuration not stated)	50% (inactive)
CN(C)CCCN(Cc1cc2ccccc2[nH]c1=O)C(=O)Nc1ccccc1	20% (inactive)
Cc1cc(=O)[nH]c(N/N=C/c2cc(C)n(CC(F)(F)F)c2C)n1	0% (inactive)
COc1cc(Nc2c3c(nc4ccccc24)CCCC3)cc(OC)c1OC	0% (inactive)
CN(C)CCCN(Cc1cc2ccccc2[nH]c1=O)C(=O)NCc1ccccc1	0% (inactive)
O=C1CCNc2cc3ccccc3cc21	-66.7% (inactive)
CCOc1ccc(NC(=O)c2cc(OC)nc3ccccc23)cc1	0% (inactive)
Cc1cc(C)cc(C(=O)N2CC(=O)Nc3ccccc32)c1	33.3% (inactive)
Cc1cc(NC(=O)CSc2nc(-c3ccco3)cc(C(F)(F)F)n2)no1	0% (inactive)
CC(=O)N[C@H]1[C@@H](O[C@@H]2OC(C[C@@H](O)C3O[C@@H](n4ccc(=O)[nH]c4=O)[C@H](O)[C@@H]3O)[C@H](O)[C@H](O)[C@H]2NC(=O)/C=C/CCCCCCCCCCC(C)C)O[C@H](CO)[C@@H](O)[C@@H]1O (some centres not stated)	-50% (inactive)
